According to the supplement of paper PMC10307832:

compound: Cn1cnc2c(F)c(Nc3ccc(Br)cc3Cl)c(C(=O)NOCCO)cc21 [Selumetinib] + CS(=O)(=O)N1CCN(Cc2cc3nc(-c4cccc5[nH]ncc45)nc(N4CCOCC4)c3s2)CC1 [Pictilisib] (partner 1 µM); assay: relative viability (nuclei count vs DMSO), 5 days (fraction); higher = more cells survive; details: first compound 0.6325 µM
In short: (§1)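 Lung cancer cell lines, seeded in 1536-well plates, were treated the following day by pin tool with a single drug or with five library-drug doses (not always all listed) in √10 steps on top of a fixed anchor-drug dose. Cells were fixed and nuclei stained in one step after 5 days, and nuclei were counted. Relative viability is the nuclei count for treated wells divided by that for vehicle wells, reported as medians of duplicate plates.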

Row | Cell Line | relative viability
1 | NCI-H1793 | 0.28
2 | RERF-LC-KJ | 0.504
3 | EKVX | 0.243
4 | LCLC-103H | 0.53
5 | NCI-H1651 | 0.522
6 | NCI-H1944 | 0.319
7 | ABC-1 | 0.607
8 | NCI-H358 | 0.277
9 | NCI-H727 | 0.234

compound: Cn1cnc2c(F)c(Nc3ccc(Br)cc3Cl)c(C(=O)NOCCO)cc21 [Selumetinib] + NC(=O)Nc1cc(-c2cccc(F)c2)sc1C(=O)N[C@H]1CCCNC1 [AZD7762] (partner 0.2 µM); assay: as above; details: first compound 0.02 µM
In short: as §1

Row | Cell Line | relative viability
10 | NCI-H2405 | 0.729
11 | NCI-H1437 | 1.03
12 | H3255 | 0.827
13 | NCI-H2347 | 0.678
14 | NCI-H1975 | 0.69
15 | NCI-H441 | 1.07
16 | NCI-H1915 | 0.81
17 | NCI-H2087 | 1.1
18 | HCC-366 | 0.27
19 | NCI-H1793 | 0.408
20 | RERF-LC-KJ | 0.992
21 | EKVX | 0.713
22 | LCLC-103H | 0.722
23 | NCI-H1651 | 0.44
24 | NCI-H1944 | 0.448
25 | ABC-1 | 0.871
26 | NCI-H358 | 0.374
27 | NCI-H727 | 0.455

same assay, conditions: first compound 0.06325 µM

Row | Cell Line | relative viability
28 | NCI-H2405 | 0.492
29 | NCI-H1437 | 0.941
30 | H3255 | 0.945
31 | NCI-H2347 | 0.568
32 | NCI-H1975 | 0.599
33 | NCI-H441 | 0.974
34 | NCI-H1915 | 0.663
35 | NCI-H2087 | 0.993
36 | HCC-366 | 0.324
37 | NCI-H1793 | 0.394
38 | RERF-LC-KJ | 0.977
39 | EKVX | 0.594
40 | LCLC-103H | 0.761
41 | NCI-H1651 | 0.42
42 | NCI-H1944 | 0.438
43 | ABC-1 | 0.591
44 | NCI-H358 | 0.349
45 | NCI-H727 | 0.428

same assay, conditions: first compound 0.2 µM

Row | Cell Line | relative viability
46 | NCI-H2405 | 0.561
47 | NCI-H1437 | 0.834
48 | H3255 | 0.821
49 | NCI-H2347 | 0.454
50 | NCI-H1975 | 0.662
51 | NCI-H441 | 1.01
52 | NCI-H1915 | 0.646
53 | NCI-H2087 | 1.16
54 | HCC-366 | 0.253
55 | NCI-H1793 | 0.406
56 | RERF-LC-KJ | 0.892
57 | EKVX | 0.613
58 | LCLC-103H | 0.749
59 | NCI-H1651 | 0.445
60 | NCI-H1944 | 0.401
61 | ABC-1 | 0.66
62 | NCI-H358 | 0.385
63 | NCI-H727 | 0.322

same assay, conditions: first compound 0.6325 µM

Row | Cell Line | relative viability
64 | NCI-H2405 | 0.466
65 | NCI-H1437 | 0.603
66 | H3255 | 0.935
67 | NCI-H2347 | 0.343
68 | NCI-H1975 | 0.527
69 | NCI-H441 | 0.69
70 | NCI-H1915 | 0.453
71 | NCI-H2087 | 0.525
72 | HCC-366 | 0.166
73 | NCI-H1793 | 0.297
74 | RERF-LC-KJ | 0.906
75 | EKVX | 0.502
76 | LCLC-103H | 0.64
77 | NCI-H1651 | 0.495
78 | NCI-H1944 | 0.427
79 | ABC-1 | 0.578
80 | NCI-H358 | 0.367
81 | NCI-H727 | 0.427

compound: Cn1cnc2c(F)c(Nc3ccc(Br)cc3Cl)c(C(=O)NOCCO)cc21 [Selumetinib] + Nc1ncn([C@H]2C[C@H](O)[C@@H](CO)O2)c(=O)n1 [Decitabine] (partner 2 µM); assay: as above; details: first compound 0.02 µM
In short: as §1

Row | Cell Line | relative viability
82 | NCI-H2405 | 0.733
83 | NCI-H1437 | 0.614
84 | H3255 | 0.647
85 | NCI-H2347 | 0.571
86 | NCI-H1975 | 0.615
87 | NCI-H441 | 0.244
88 | NCI-H1915 | 0.28
89 | NCI-H2087 | 0.267
90 | HCC-366 | 0.353
91 | NCI-H1793 | 0.494
92 | RERF-LC-KJ | 0.682
93 | EKVX | 0.339
94 | LCLC-103H | 0.697
95 | NCI-H1651 | 0.626
96 | NCI-H1944 | 0.433
97 | ABC-1 | 1.01
98 | NCI-H358 | 0.194
99 | NCI-H727 | 0.762

same assay, conditions: first compound 0.06325 µM

Row | Cell Line | relative viability
100 | NCI-H2405 | 0.751
101 | NCI-H1437 | 0.537
102 | H3255 | 0.649
103 | NCI-H2347 | 0.585
104 | NCI-H1975 | 0.384
105 | NCI-H441 | 0.224
106 | NCI-H1915 | 0.263
107 | NCI-H2087 | 0.253
108 | HCC-366 | 0.36
109 | NCI-H1793 | 0.527
110 | RERF-LC-KJ | 0.608
111 | EKVX | 0.29
112 | LCLC-103H | 0.715
113 | NCI-H1651 | 0.531
114 | NCI-H1944 | 0.456
115 | ABC-1 | 1.08
116 | NCI-H358 | 0.181
117 | NCI-H727 | 0.578

same assay, conditions: first compound 0.2 µM

Row | Cell Line | relative viability
118 | NCI-H2405 | 0.736
119 | NCI-H1437 | 0.464
120 | H3255 | 0.557
121 | NCI-H2347 | 0.49
122 | NCI-H1975 | 0.385
123 | NCI-H441 | 0.207
124 | NCI-H1915 | 0.239
125 | NCI-H2087 | 0.249
126 | HCC-366 | 0.315
127 | NCI-H1793 | 0.468
128 | RERF-LC-KJ | 0.639
129 | EKVX | 0.37
130 | LCLC-103H | 0.71
131 | NCI-H1651 | 0.644
132 | NCI-H1944 | 0.397
133 | ABC-1 | 1.08
134 | NCI-H358 | 0.193
135 | NCI-H727 | 0.606

same assay, conditions: first compound 0.6325 µM

Row | Cell Line | relative viability
136 | NCI-H2405 | 0.615
137 | NCI-H1437 | 0.544
138 | H3255 | 0.614
139 | NCI-H2347 | 0.34
140 | NCI-H1975 | 0.334
141 | NCI-H441 | 0.268
142 | NCI-H1915 | 0.246
143 | NCI-H2087 | 0.213
144 | HCC-366 | 0.309
145 | NCI-H1793 | 0.401
146 | RERF-LC-KJ | 0.737
147 | EKVX | 0.339
148 | LCLC-103H | 0.706
149 | NCI-H1651 | 0.701
150 | NCI-H1944 | 0.426
151 | ABC-1 | 1.02
152 | NCI-H358 | 0.158
153 | NCI-H727 | 0.583
